Entries after “also recorded” stand apart in the source; their conditions may differ.
Columns and labels:
[1] = tested on: mice; details: limited sequencing of target genes; cited from earlier work
[2] = tested on: cord blood CD34+ cells; assay: direct measurement of environmental mutagenicity (DMEM), single-cell PTA sequencing; type: cell-based, human; details: for enrichment of cytosine variants in DNase I hypersensitivity sites: compared to DH sites of CD34+ cells, Roadmap Epigenomics Project, FIG. 12D, 12E
Description: PTA was used to conduct a novel mutagenicity assay that provides a framework for performing high-resolution, genome wide human toxicogenomics studies. Previous studies such as the Ames test, relies on bacterial genetics to make measurements that are assumed to be representative of human cells while only providing limited information on the mutation number and patterns induced in each exposed cell. To overcome these limitations, a human mutagenesis system “direct measurement of environmental mutagenicity (DMEM)” was developed, wherein single human cells was exposed to an environmental compound, isolated as single cells, and subjected to single-cell sequencing to identify the new mutations induced in each cell.
Umbilical cord blood cells that express the stem/progenitor marker CD34 were exposed to increasing concentrations of the direct mutagen N-ethyl-N-nitrosourea (ENU).
ENU (CAS 759-73-9) and D-mannitol (CAS 69-65-8) were put into solution at their maximal solubility. Fresh anticoagulant-treated umbilical cord blood (CB) was obtained from St. Louis Cord Blood Bank. CB was diluted 1:2 with PBS and mononuclear cells (MNCs) were isolated by density gradient centrifugation on Ficoll-Paque Plus according to manufacturer's instructions. CB MNCs expressing CD34 were then immunomagnetically selected using the human CD34 microbead kit and magnetic cell sorting (MACS) system as per the manufacturer. Cell count and viability were assessed using the Luna FL cell counter. CB CD34+ cells were seeded at a density of 2.5×10^4 cells/mL in StemSpan SFEM supplemented with 1× CD34+ Expansion supplement, 100 units/mL of penicillin, and 100 ug/mL of streptomycin where they expanded for 96 hours before proceeding to mutagen exposure.
Expanded cord blood CD34+ cells were cultured in StemSpan SFEM supplemented with 1× CD34+ Expansion Supplement, 100 units/mL of penicillin, and 100 ug/mL of streptomycin. The cells were exposed to ENU at concentrations of 8.54, 85.4, and 854 uM, D-mannitol at 1152.8, and 11528 uM, or 0.9% sodium chloride (vehicle control) for 40 hours. Single-cell suspensions from drug-treated cells and vehicle control samples were harvested and stained for viability as described above. Single cell sorts were carried out as described above. PTA was performed and libraries were prepared using a simplified and improved protocol as per the general methods of the methods described herein, and Example 2.
Data acquired from cells in the DMEM experiments were trimmed using Trimmomatic, aligned to GRCh38 using BWA, and further processed using GATK 4.0.1 best practices without deviation from the recommended parameters. Genotyping was performed using HaplotypeCaller where joint genotypes were again filtered using standard parameters. […] The trinucleotide context of each SNV was determined by extracting the surrounding bases from the reference genome using bedtools. Mutation counts and context were visualized using ggplot2 and heatmap2 in R.
To determine whether mutations were enriched in DNase I hypersensitivity sites (DHS) in CD34+ cells, the proportion of SNVs in each sample that overlap with DHS sites from 10 CD34+ primary cell datasets produced by the Roadmap Epigenomics Project were calculated. DHS sites were extended by 2 nucleosomes, or 340 bases in either direction. Each DHS dataset was paired with a single cell sample where we determined the proportion of the human genome with at least 10× coverage in that cell which overlapped with a DHS, which was compared to the proportion of SNVs that were found within the covered DHS sites.

[3] = tested on: clone harboring an activating KRAS mutation; assay: leukemia cells in culture exposed to standard ALL chemotherapy drugs, bulk sequencing of clones; type: cell-based; details: FIG. 7
Description: Given such a massive population genetic diversity, it has been hypothesized that there are clones that are more resistant to treatment within a given patient. To test that hypothesis, the sample is placed in culture and the leukemia cells are exposed to increasing concentrations of standard ALL chemotherapy drugs. […] This approach also employed bulk sequencing of the treated samples. The use of single-cell DNA sequencing in some instances allows a determination of the diversity and clonotypes of the expanding populations.

CCN(N=O)C(N)=O [ENU, N-ethyl-N-nitrosourea]
preferred base changes [1]: T to A (A to T), T to C (A to G), and C to T (G to A)
most common mutations (base changes) ([2]; FIG. 12B): T to A (A to T), T to C (A to G), and C to T (G to A)
enrichment in variant locations at DH sites ([2]; all ENU induced mutations, FIG. 12E): No significant enrichment in variant locations at DH sites
enrichment of cytosine variants in DNase I hypersensitivity sites [2]: no enrichment of cytosine variants in DNase I hypersensitivity sites was observed; also recorded: no enrichment of variants restricted to cytosines was observed in DH sites
enrichment of cytosine variants in DNase I hypersensitivity sites ([2]; listed as N-ethyl-N-nitrosourea): No significant enrichment of cytosine variants was observed
mutation number of each cell ([2]; increasing ENU concentrations 8.54, 85.4, 854 uM, 40 hours, FIG. 12A): dose-dependent increase in mutation number of each cell
enrichment of variants in genomic locations with specific annotations ([2]; relative to proportion of the genome each annotation comprises, FIG. 12F): No specific enrichment

COc1cccc2c1C(=O)c1c(O)c3c(c(O)c1C2=O)C[C@@](O)(C(C)=O)C[C@@H]3O[C@H]1C[C@H](N)[C@H](O)[C@H](C)O1 [daunorubicin]
response of the clone harboring an activating KRAS mutation ([3]; in culture with drug): more sensitive; also recorded: killed

C[C@]12C=CC(=O)C=C1CC[C@@H]1[C@@H]2[C@@H](O)C[C@@]2(C)[C@H]1CC[C@]2(O)C(=O)CO [prednisolone]
response of the clone harboring an activating KRAS mutation ([3]; in culture with drug): more sensitive; also recorded: killed

asparaginase
response of the clone harboring an activating KRAS mutation ([3]; lowest dose): continued to expand
